Test results published in PMC3260189, “The Location and Nature of General Anesthetic Binding Sites on the Active Conformation of Firefly Luciferase; A Time Resolved Photolabeling Study” (PLoS ONE, 2012).
One block for each compound: values may come before it.

How the values were obtained:
[1] = target: T1, American firefly luciferase (Photinus pyralis, UniProt P08659); test: stopped-flow inhibition of initial light output; type: biochemical
T1 construct: recombinant luciferase

[2] = target: T1, American firefly luciferase; test: stopped-flow inhibition of initial ATP-induced light output; photolabeling with LC-MSMS also done; type: biochemical
[3] = target: T2, Japanese firefly luciferase (Nipponoluciola cruciata, UniProt P13129); test: [3H] photoincorporation and time-resolved photolabeling with LC-MSMS; type: binding
T2 construct: recombinant luciferase
T2 sequence (P13129 1-548): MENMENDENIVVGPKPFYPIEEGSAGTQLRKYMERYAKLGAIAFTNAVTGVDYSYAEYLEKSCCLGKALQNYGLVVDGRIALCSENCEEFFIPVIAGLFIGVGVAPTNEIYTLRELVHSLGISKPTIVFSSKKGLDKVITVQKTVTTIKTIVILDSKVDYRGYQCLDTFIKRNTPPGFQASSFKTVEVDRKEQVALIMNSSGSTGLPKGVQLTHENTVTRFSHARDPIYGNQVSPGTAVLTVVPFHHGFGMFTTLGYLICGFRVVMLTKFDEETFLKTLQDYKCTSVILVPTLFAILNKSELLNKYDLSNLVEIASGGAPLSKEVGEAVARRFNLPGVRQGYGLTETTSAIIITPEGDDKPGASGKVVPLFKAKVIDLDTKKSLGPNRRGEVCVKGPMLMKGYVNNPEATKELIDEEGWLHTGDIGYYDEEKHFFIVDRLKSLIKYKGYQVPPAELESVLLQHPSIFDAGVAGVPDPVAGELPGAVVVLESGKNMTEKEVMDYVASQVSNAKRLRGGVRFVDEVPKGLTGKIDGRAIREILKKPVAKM

[4] = target: T1, American firefly luciferase; test: equilibrium photolabeling with LC-MSMS; type: binding

T1 sequence (P08659 whole entry): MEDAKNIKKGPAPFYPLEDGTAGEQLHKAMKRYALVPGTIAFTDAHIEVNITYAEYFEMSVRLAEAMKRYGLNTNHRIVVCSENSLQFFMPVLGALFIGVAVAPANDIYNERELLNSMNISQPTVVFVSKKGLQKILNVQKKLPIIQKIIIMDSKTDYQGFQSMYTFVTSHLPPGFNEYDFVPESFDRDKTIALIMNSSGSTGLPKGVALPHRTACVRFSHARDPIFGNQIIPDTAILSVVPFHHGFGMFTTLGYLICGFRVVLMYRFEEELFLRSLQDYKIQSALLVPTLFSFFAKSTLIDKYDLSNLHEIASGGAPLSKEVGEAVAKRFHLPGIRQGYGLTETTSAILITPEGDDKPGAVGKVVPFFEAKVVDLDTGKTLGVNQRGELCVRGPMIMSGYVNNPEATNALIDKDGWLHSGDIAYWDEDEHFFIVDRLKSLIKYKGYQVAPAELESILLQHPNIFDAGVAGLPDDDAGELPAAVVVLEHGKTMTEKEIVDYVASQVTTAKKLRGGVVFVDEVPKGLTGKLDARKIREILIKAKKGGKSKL

IC50 [1]: ~ 225 µM
SMILES: CCCCCCCCO [1-octanol]

IC50 [2]: 200 ± 46 µM
Kd [3]: > 1 mM
SMILES: CCCCCC1(CCO)N=N1 [3-azioctanol, 3-(2-hydroxyethyl)-3-n-pentyldiazirine]

SMILES: CC1(CCCCCCO)N=N1 [7-azioctanol]
equilibrium photolabeling with LC-MSMS [4]: photolabeled the American firefly luciferase at equilibrium with the azialkanols, and found the labeling pattern to be identical
